Columns and labels:
[1] = target: Protein NDRG1 (Homo sapiens) (UniProt Q92597); assay: Inhibition of NDRG1 (unknown origin) at 1 uM by mobility shift microfluidics platform based assay relative to control
[2] = target: Sphingosine kinase 2 (Homo sapiens) (UniProt Q9NRA0); assay: Inhibition of SPHK2 (unknown origin) at 1 uM by mobility shift microfluidics platform based assay relative to control
[3] = target: Serine/threonine-protein kinase MARK1 (Homo sapiens) (UniProt Q9P0L2); assay: Inhibition of MARK1 (unknown origin) at 1 uM by mobility shift microfluidics platform based assay relative to control
[4] = target: Mast/stem cell growth factor receptor Kit (Homo sapiens) (UniProt P10721); assay: Inhibition of KIT (unknown origin) at 1 uM by mobility shift microfluidics platform based assay relative to control
[5] = target: Dual specificity protein kinase CLK2 (Homo sapiens) (UniProt P49760); assay: Inhibition of CLK2 (unknown origin) at 1 uM by mobility shift microfluidics platform based assay relative to control
[6] = target: Tyrosine-protein kinase Tec (Homo sapiens) (UniProt P42680); assay: Inhibition of TEC (unknown origin) at 1 uM by mobility shift microfluidics platform based assay relative to control
[7] = tested on: Leucine-rich repeat serine/threonine-protein kinase 2 (Homo sapiens), Q5S007 [G2019S]; assay: Inhibition of LRRK2 G2019S mutant (unknown origin) at 1 uM by mobility shift microfluidics platform based assay relative to control
[8] = target: SRSF protein kinase 1 (Homo sapiens) (UniProt Q96SB4); assay: Inhibition of SRPK1 (unknown origin) at 1 uM by mobility shift microfluidics platform based assay relative to control
[9] = target: SRSF protein kinase 2 (Homo sapiens) (UniProt P78362); assay: Inhibition of SRPK2 (unknown origin) at 1 uM by mobility shift microfluidics platform based assay relative to control
[10] = target: Serine/threonine-protein kinase haspin (Homo sapiens) (UniProt Q8TF76); assay: Inhibition of HASPIN (unknown origin) at 1 uM by mobility shift microfluidics platform based assay relative to control
[11] = target: Serine/threonine-protein kinase TAO3 (Homo sapiens) (UniProt Q9H2K8); assay: Inhibition of TAOK3 (unknown origin) at 1 uM by mobility shift microfluidics platform based assay relative to control
[12] = target: RAF proto-oncogene serine/threonine-protein kinase (Homo sapiens) (UniProt P04049); assay: Inhibition of CRAF (unknown origin) at 1 uM by mobility shift microfluidics platform based assay relative to control
[13] = target: Ribosomal protein S6 kinase alpha-6 (Homo sapiens) (UniProt Q9UK32); assay: Inhibition of RSK4 (unknown origin) at 1 uM by mobility shift microfluidics platform based assay relative to control
[14] = target: Ribosomal protein S6 kinase alpha-1 (Homo sapiens) (UniProt Q15418); assay: Inhibition of RSK1 (unknown origin) at 1 uM by mobility shift microfluidics platform based assay relative to control
[15] = target: Proto-oncogene tyrosine-protein kinase ROS (Homo sapiens) (UniProt P08922); assay: Inhibition of ROS (unknown origin) at 1 uM by mobility shift microfluidics platform based assay relative to control
[16] = target: Serine/threonine-protein kinase MARK2 (Homo sapiens) (UniProt Q7KZI7); assay: Inhibition of PAR-1B-alpha (unknown origin) at 1 uM by mobility shift microfluidics platform based assay relative to control
[17] = target: Death-associated protein kinase 1 (Homo sapiens) (UniProt P53355); assay: Inhibition of DAPK1 (unknown origin) at 1 uM by mobility shift microfluidics platform based assay relative to control
Homo sapiens = species: Homo sapiens; assay: Inhibition of CDK/cyclin D3 (unknown origin) at 1 uM by mobility shift microfluidics platform based assay relative to control
[18] = target: Focal adhesion kinase 1 (Homo sapiens) (UniProt Q05397); assay: Inhibition of FAK (unknown origin) at 1 uM by mobility shift microfluidics platform based assay relative to control
[19] = target: Tyrosine-protein kinase receptor UFO (Homo sapiens) (UniProt P30530); assay: Inhibition of AXL (unknown origin) at 1 uM by mobility shift microfluidics platform based assay relative to control
[20] = target: Serine/threonine-protein kinase Sgk1 (Homo sapiens) (UniProt O00141); assay: Inhibition of SGK1 (unknown origin) at 1 uM by mobility shift microfluidics platform based assay relative to control
[21] = target: Serine/threonine-protein kinase LATS2 (Homo sapiens) (UniProt Q9NRM7); assay: Inhibition of LATS2 (unknown origin) at 1 uM by mobility shift microfluidics platform based assay relative to control
[22] = target: cAMP-dependent protein kinase catalytic subunit alpha (Homo sapiens) (UniProt P17612); assay: Inhibition of PRKACA (unknown origin) at 1 uM by mobility shift microfluidics platform based assay relative to control
[23] = target: Calcium/calmodulin-dependent protein kinase type II subunit alpha (Homo sapiens) (UniProt Q9UQM7); assay: Inhibition of CAMK2A (unknown origin) at 1 uM by mobility shift microfluidics platform based assay relative to control
[24] = target: Mitogen-activated protein kinase kinase kinase kinase 5 (Homo sapiens) (UniProt Q9Y4K4); assay: Inhibition of MAP4K5 (unknown origin) at 1 uM by mobility shift microfluidics platform based assay relative to control
[25] = target: Homeodomain-interacting protein kinase 4 (Homo sapiens) (UniProt Q8NE63); assay: Inhibition of HIPK4 (unknown origin) at 1 uM by mobility shift microfluidics platform based assay relative to control
[26] = target: Ribosomal protein S6 kinase alpha-3 (Homo sapiens) (UniProt P51812); assay: Inhibition of RSK2 (unknown origin) at 1 uM by mobility shift microfluidics platform based assay relative to control
[27] = target: Ephrin type-A receptor 3 (Homo sapiens) (UniProt P29320); assay: Inhibition of EPH-A3 (unknown origin) at 1 uM by mobility shift microfluidics platform based assay relative to control
[28] = target: Serine/threonine-protein kinase Chk2 (Homo sapiens) (UniProt O96017); assay: Inhibition of CHEK2 (unknown origin) at 1 uM by mobility shift microfluidics platform based assay relative to control
[29] = target: Ephrin type-B receptor 3 (Homo sapiens) (UniProt P54753); assay: Inhibition of EPH-B3 (unknown origin) at 1 uM by mobility shift microfluidics platform based assay relative to control
[30] = target: Serine/threonine-protein kinase Nek2 (Homo sapiens) (UniProt P51955); assay: Inhibition of NEK2 (unknown origin) at 1 uM by mobility shift microfluidics platform based assay relative to control
[31] = target: Serine/threonine-protein kinase 4 (Homo sapiens) (UniProt Q13043); assay: Inhibition of MST1 (unknown origin) at 1 uM by mobility shift microfluidics platform based assay relative to control
[32] = target: Ribosomal protein S6 kinase beta-2 (Homo sapiens) (UniProt Q9UBS0); assay: Inhibition of P70S6K2 (unknown origin) at 1 uM by mobility shift microfluidics platform based assay relative to control
[33] = target: Hepatocyte growth factor receptor (Homo sapiens) (UniProt P08581); assay: Inhibition of MET (unknown origin) at 1 uM by mobility shift microfluidics platform based assay relative to control

Serine/threonine-protein kinase MARK1 (Homo sapiens), sequence (Q9P0L2 whole entry, looked up): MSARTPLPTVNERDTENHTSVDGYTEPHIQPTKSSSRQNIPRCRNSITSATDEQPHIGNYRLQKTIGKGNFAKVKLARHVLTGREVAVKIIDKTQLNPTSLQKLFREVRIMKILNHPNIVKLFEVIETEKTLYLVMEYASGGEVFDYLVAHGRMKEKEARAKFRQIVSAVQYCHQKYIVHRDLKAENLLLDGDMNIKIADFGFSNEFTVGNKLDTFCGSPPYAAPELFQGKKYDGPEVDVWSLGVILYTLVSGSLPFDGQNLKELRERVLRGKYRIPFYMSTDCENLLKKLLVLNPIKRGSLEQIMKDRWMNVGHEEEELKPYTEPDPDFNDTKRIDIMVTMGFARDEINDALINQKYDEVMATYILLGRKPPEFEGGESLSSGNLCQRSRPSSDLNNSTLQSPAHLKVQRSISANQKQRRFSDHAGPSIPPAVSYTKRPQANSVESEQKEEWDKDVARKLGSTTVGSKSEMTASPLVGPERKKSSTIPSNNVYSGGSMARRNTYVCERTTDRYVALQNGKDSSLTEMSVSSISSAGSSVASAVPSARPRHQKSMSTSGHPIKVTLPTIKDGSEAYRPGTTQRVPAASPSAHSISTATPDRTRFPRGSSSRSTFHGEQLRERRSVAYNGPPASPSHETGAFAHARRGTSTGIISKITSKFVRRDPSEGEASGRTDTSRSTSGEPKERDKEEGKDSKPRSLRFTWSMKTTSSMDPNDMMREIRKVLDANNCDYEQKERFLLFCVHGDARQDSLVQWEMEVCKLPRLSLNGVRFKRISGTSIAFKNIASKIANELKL
Calcium/calmodulin-dependent protein kinase type II subunit alpha (Homo sapiens), sequence (Q9UQM7 whole entry): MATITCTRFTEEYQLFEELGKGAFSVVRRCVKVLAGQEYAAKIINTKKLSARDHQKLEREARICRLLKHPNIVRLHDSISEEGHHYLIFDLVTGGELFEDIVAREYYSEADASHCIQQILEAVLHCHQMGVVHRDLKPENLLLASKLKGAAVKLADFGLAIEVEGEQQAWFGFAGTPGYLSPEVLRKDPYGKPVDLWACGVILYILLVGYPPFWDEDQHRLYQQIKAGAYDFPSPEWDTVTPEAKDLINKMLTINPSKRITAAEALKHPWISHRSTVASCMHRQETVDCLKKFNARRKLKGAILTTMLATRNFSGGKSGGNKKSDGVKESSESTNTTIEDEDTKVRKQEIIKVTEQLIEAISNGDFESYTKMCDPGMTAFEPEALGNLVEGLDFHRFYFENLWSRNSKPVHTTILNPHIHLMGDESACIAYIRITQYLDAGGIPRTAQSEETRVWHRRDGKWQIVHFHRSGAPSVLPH
Serine/threonine-protein kinase TAO3 (Homo sapiens), sequence (Q9H2K8 whole entry): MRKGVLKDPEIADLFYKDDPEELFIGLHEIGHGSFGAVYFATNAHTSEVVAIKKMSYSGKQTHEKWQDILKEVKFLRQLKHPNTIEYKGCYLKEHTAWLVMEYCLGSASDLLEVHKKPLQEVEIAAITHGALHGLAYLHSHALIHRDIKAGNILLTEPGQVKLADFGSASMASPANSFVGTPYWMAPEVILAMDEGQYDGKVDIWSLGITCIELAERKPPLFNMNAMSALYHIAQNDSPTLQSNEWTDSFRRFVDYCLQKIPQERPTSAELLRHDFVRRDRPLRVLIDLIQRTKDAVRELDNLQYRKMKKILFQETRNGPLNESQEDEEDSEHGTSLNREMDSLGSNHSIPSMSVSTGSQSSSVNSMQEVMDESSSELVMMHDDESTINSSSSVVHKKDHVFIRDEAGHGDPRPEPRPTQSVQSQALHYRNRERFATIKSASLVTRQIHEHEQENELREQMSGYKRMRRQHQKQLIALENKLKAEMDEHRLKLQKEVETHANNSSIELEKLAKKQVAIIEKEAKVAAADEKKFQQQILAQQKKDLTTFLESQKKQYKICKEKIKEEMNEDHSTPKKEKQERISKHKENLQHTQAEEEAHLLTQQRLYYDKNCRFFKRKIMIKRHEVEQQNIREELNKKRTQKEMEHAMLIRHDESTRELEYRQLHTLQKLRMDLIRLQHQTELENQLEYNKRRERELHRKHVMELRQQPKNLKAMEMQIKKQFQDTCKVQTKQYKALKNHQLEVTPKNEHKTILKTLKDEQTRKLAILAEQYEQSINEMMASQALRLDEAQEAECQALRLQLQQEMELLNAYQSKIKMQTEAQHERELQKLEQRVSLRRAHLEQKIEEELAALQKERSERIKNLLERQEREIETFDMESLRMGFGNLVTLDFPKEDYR
Death-associated protein kinase 1 (Homo sapiens), sequence (P53355 whole entry, looked up): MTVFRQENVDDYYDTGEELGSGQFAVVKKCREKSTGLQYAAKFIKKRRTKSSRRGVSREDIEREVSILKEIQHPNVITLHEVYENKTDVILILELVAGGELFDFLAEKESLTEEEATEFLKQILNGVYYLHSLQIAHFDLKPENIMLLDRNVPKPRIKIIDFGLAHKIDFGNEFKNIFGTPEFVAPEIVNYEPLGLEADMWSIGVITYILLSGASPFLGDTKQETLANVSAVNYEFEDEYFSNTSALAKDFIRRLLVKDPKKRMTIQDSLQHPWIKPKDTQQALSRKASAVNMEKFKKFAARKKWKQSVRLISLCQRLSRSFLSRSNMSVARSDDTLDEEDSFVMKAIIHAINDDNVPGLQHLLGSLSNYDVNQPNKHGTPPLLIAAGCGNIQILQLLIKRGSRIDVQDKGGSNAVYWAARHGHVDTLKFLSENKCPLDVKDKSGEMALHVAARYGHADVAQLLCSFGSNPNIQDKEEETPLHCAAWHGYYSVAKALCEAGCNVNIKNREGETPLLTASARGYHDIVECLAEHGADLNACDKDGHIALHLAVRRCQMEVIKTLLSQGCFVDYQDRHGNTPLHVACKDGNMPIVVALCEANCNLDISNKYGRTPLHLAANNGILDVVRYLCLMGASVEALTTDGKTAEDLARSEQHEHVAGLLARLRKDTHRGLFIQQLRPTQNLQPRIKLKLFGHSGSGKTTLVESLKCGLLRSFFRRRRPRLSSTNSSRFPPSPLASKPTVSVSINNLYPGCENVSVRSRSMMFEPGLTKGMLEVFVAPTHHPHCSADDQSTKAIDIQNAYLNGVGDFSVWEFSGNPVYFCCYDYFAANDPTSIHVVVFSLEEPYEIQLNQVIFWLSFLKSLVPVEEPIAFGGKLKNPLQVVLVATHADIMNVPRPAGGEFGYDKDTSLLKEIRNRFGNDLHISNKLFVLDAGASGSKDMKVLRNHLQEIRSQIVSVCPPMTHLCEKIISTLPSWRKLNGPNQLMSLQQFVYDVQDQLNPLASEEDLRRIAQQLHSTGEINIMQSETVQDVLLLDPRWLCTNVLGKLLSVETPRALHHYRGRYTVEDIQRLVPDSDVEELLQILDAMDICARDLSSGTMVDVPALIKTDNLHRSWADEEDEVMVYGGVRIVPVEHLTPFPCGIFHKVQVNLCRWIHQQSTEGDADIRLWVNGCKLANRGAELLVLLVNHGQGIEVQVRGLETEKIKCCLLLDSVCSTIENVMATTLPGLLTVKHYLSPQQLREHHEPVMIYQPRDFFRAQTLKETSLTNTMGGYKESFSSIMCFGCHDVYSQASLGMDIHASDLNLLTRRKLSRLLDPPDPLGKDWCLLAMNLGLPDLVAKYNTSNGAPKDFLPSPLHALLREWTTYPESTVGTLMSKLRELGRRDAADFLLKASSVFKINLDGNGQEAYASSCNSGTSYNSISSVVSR
Serine/threonine-protein kinase Sgk1 (Homo sapiens), sequence (O00141 whole entry): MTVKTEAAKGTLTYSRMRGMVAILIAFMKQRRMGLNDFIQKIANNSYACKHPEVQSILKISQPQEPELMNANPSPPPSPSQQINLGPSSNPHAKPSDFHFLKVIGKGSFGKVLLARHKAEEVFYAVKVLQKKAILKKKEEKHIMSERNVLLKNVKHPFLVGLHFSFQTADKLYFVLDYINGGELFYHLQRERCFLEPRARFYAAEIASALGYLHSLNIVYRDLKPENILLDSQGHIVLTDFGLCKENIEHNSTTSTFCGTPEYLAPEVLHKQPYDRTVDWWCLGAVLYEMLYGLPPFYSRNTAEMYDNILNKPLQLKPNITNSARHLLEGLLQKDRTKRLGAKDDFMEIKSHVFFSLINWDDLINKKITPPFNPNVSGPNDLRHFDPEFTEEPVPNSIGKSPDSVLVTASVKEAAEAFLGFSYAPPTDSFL
Focal adhesion kinase 1 (Homo sapiens), sequence (Q05397 2-1052 limits assumed): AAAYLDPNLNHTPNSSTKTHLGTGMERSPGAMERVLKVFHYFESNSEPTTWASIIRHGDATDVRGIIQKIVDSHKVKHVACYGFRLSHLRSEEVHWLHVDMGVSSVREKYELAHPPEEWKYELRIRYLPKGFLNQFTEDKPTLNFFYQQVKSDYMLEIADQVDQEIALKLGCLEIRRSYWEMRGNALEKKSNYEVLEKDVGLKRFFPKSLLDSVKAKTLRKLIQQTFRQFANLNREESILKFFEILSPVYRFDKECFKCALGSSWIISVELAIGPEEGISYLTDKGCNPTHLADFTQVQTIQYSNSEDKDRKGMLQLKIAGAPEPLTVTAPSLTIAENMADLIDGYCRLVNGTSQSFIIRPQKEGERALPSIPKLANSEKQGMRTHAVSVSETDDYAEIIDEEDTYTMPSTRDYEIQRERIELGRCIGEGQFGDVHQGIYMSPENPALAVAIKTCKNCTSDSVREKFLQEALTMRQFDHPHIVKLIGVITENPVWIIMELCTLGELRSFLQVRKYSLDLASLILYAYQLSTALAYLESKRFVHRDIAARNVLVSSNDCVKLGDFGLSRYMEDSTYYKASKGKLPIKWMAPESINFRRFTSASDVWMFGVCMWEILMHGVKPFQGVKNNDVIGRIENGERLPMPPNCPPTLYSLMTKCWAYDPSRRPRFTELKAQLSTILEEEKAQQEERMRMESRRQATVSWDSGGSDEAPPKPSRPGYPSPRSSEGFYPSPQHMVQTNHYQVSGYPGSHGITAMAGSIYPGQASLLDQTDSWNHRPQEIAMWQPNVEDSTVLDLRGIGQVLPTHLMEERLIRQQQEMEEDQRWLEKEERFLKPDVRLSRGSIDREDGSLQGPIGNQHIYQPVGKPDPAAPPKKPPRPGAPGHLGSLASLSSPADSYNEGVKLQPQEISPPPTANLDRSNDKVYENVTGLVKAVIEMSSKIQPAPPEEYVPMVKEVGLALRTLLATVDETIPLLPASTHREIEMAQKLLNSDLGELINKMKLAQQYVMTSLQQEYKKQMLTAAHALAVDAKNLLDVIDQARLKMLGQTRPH

Compound	inhibition [1] [%]	inhibition [2] [%]	inhibition [3] [%]	inhibition [4] [%]	inhibition [5] [%]	inhibition [6] [%]	inhibition [7] [%]	inhibition [8] [%]	inhibition [9] [%]	inhibition [10] [%]	inhibition [11] [%]	inhibition [12] [%]	inhibition [13] [%]	inhibition [14] [%]	inhibition [15] [%]	inhibition [16] [%]	inhibition [17] [%]	inhibition (Homo sapiens) [%]	inhibition [18] [%]	inhibition [19] [%]	also measured
CC(C)n1nc(C#Cc2cccc3cc(-c4cccc(C(F)(F)F)c4)ncc23)c2c(N)ncnc21	6	20	-2	97	-1	2	3	2	-1	1	33	101	0	1	5	0	-2	1	3	2	inhibition [20]: 0%; inhibition [21]: -2%; inhibition [22]: 4%; inhibition [23]: 6%; inhibition [24]: 33%; inhibition [25]: 9%; inhibition [26]: 0%; inhibition [27]: 76%; inhibition [28]: -4%; inhibition [29]: 86%; inhibition [30]: 0%; inhibition [31]: 4%; inhibition [32]: 3%; inhibition [33]: -1%
CC(C)n1nc(C#Cc2cccc(NC(=O)c3cccc(C(F)(F)F)c3)c2)c2c(N)ncnc21	-3	0	1	98	5	40	36	1	-1	5	37	118	2	9	18	0	-2	8	-8	12	inhibition [20]: -1%; inhibition [21]: 0%; inhibition [22]: 2%; inhibition [23]: 3%; inhibition [24]: 66%; inhibition [25]: 29%; inhibition [26]: 0%; inhibition [27]: 98%; inhibition [28]: 3%; inhibition [29]: 98%; inhibition [30]: -1%; inhibition [31]: 10%; inhibition [32]: 5%; inhibition [33]: 8%

— ChEMBL document CHEMBL4229333, “Effects of rigidity on the selectivity of protein kinase inhibitors” (Eur J Med Chem, 2018)
